Measurements taken from patent USRE49022E1, “Insecticidal compounds” (SYNGENTA PARTICIPATIONS AG, priority 2013, dated 2022).

How the values were obtained:
Type in all cases: in vivo
[1] = tested on: Spodoptera littoralis (Egyptian Cotton Leafworm); experiment: Spodoptera littoralis, cotton leaf disc spray test; settings: foliar, 72 h, sprayed cotton leaf discs, L1 larvae, 3 days after treatment
Source text: Cotton leaf discs were placed on agar in a 24-well microtiter plate and sprayed with test solutions at an application rate of 200 ppm. After drying, the leaf discs were infested with 5 L1 larvae. The samples were checked for mortality 3 days after treatment (DAT).

[2] = tested on: Myzus persicae (Green Peach Aphid); experiment: Myzus persicae, sunflower leaf disc spray test; settings: foliar, 144 h, sprayed sunflower leaf discs, aphid population of mixed ages, mortality after 6 DAT
Description: Sunflower leaf discs were placed on agar in a 24-well microtiter plate and sprayed with test solutions at an application rate of 200 ppm. After drying, the leaf discs were infested with an aphid population of mixed ages. After an incubation period of 6 DAT, samples were checked for mortality.

[3] = tested on: Thrips tabaci (Onion Thrips); experiment: Thrips tabaci, sunflower leaf disc spray test; settings: foliar, 168 h, sprayed sunflower leaf discs, mortality after 7 days
[4] = tested on: Myzus persicae (Green Peach Aphid); experiment: Myzus persicae, sucrose solution / Parafilm test; settings: 120 h, mixed with sucrose solution under Parafilm, mortality 5 days after infestation
Source text: Test compounds were applied by pipette into 24 well plates and mixed with Sucrose solution. Application rate: 12.5 ppm. The plates were closed with a stretched Parafilm. A plastic stencil with 24 holes is placed onto the plate and infested pea seedlings were placed directly on the Parafilm. The infested plate is closed with a gel blotting paper and another plastic stencil and then turned upside down. 5 days after infestation the samples were checked on mortality.

[5] = tested on: Plutella xylostella (Diamond Back Moth); experiment: Plutella xylostella, artificial diet MTP test; settings: 144 h, 200 ppm (concentration in well 18 ppm), L2 larvae, 6 days
Description: 24-well microtiter plate (MTP) with artificial diet was treated with test solutions at an application rate of 200 ppm (concentration in well 18 ppm) by pipetting. After drying, the MTP's were infested with L2 larvae (7-12 per well). After an incubation period of 6 days, samples were checked for larval mortality and growth regulation. The following compound gave at least 80% mortality of Plutella xylostella: 1, 2, 3, 4, 5, 6, 7, 8, 9, 10, 11, 12, 13, 14, 15, 16, 17, 18, 19, 20, 21, 22, 23, 24, 25, 26, 27, 28, 29, 30, 31, 32, 33, 34, 35, 36, 37, 38, 39, 40, 41, 42, 43, 44, 45, 46, 47, 48, 49, 50.

[6] = tested on: Tetranychus urticae (Two-Spotted Spider Mite); experiment: Tetranychus urticae, bean leaf disc spray test; settings: foliar, 192 h, sprayed bean leaf discs, mite populations of mixed ages, 8 days
Source text: Bean leaf discs on agar in 24-well microtiter plates were sprayed with test solutions at an application rate of 200 ppm. After drying, the leaf discs are infested with mite populations of mixed ages. 8 days later, discs were checked for mortality.

[7] = tested on: Diabrotica balteata (Corn Root Worm); experiment: Diabrotica balteata, artificial diet MTP test; settings: 120 h, 200 ppm (concentration in well 18 ppm), L2 larvae, larval mortality after 5 days
Description: A 24-well microtiter plate (MTP) with artificial diet was treated with test solutions at an application rate of 200 ppm (concentration in well 18 ppm) by pipetting. After drying, the MTP's were infested with L2 larvae (6-10 per well). After an incubation period of 5 days, samples were checked for larval mortality The following compound gave at least 80% control of Diabrotica balteata: 1, 2, 3, 4, 5, 6, 7, 8, 9, 10, 11, 12, 13, 14, 15, 16, 17, 18, 19, 20, 21, 22, 23, 24, 25, 26, 27, 28, 29, 30, 31, 32, 33, 34, 35, 36, 37, 38, 39, 40, 41, 42, 43, 44, 45, 46, 47, 48, 49, 50, 51.

CCc1cc(C(F)(C(F)(F)F)C(F)(F)Cl)cc(Br)c1NC(=O)c1cccc(N(CC)C(=O)c2cccnc2)c1OC (centres unmarked) [Compound 42]
≥ 80%: mortality at 200 ppm [1] | pest or weed control at 200 ppm [2] | pest or weed control at 200 ppm [3] | pest or weed control at 12.5 ppm [4] | mortality at 200 ppm [5] | mortality at 200 ppm [6] | pest or weed control at 200 ppm [7]

CCc1cc(C(F)(C(F)(F)F)C(F)(F)Cl)cc(Br)c1NC(=O)c1cccc(N(CC)C(=O)c2cc[n+]([O-])cc2)c1OC (centres unmarked) [Compound 46]
≥ 80%: mortality at 200 ppm [1] | pest or weed control at 200 ppm [2] | pest or weed control at 200 ppm [3] | pest or weed control at 12.5 ppm [4] | mortality at 200 ppm [5] | mortality at 200 ppm [6] | pest or weed control at 200 ppm [7]

CCc1cc(C(F)(C(F)(F)F)C(F)(F)Cl)cc(Br)c1NC(=O)c1cccc(N(CC)C(=O)c2ccc(C#N)cc2)c1F (centres unmarked) [Compound 33]
≥ 80%: mortality at 200 ppm [1] | pest or weed control at 200 ppm [2] | pest or weed control at 200 ppm [3] | pest or weed control at 12.5 ppm [4] | mortality at 200 ppm [5] | mortality at 200 ppm [6] | pest or weed control at 200 ppm [7]

CCc1cc(C(F)(C(F)(F)F)C(F)(F)Cl)cc(Br)c1NC(=O)c1cccc(NC(=O)c2ccc[n+]([O-])c2)c1F (centres unmarked) [Compound 28]
≥ 80%: mortality at 200 ppm [1] | pest or weed control at 200 ppm [2] | pest or weed control at 200 ppm [3] | pest or weed control at 12.5 ppm [4] | mortality at 200 ppm [5] | mortality at 200 ppm [6] | pest or weed control at 200 ppm [7]

CCc1cc(C(F)(C(F)(F)F)C(F)(F)Cl)cc(Br)c1NC(=O)c1cccc(NC(=O)c2cc[n+]([O-])cc2)c1OC (centres unmarked) [Compound 29]
≥ 80%: mortality at 200 ppm [1] | pest or weed control at 200 ppm [2] | pest or weed control at 200 ppm [3] | pest or weed control at 12.5 ppm [4] | mortality at 200 ppm [5] | mortality at 200 ppm [6] | pest or weed control at 200 ppm [7]

CCc1cc(C(F)(C(F)(F)F)C(F)(F)Cl)cc(Br)c1NC(=O)c1cccc(NC(=O)c2ccc(C#N)cc2)c1OC (centres unmarked) [Compound 22]
≥ 80%: mortality at 200 ppm [1] | pest or weed control at 200 ppm [2] | pest or weed control at 200 ppm [3] | pest or weed control at 12.5 ppm [4] | mortality at 200 ppm [5] | mortality at 200 ppm [6] | pest or weed control at 200 ppm [7]

CCc1cc(C(F)(C(F)(F)F)C(F)(F)Cl)cc(Br)c1NC(=O)c1cccc(N(CC)C(=O)c2ccncc2)c1OC (centres unmarked) [Compound 38]
≥ 80%: mortality at 200 ppm [1] | pest or weed control at 200 ppm [2] | pest or weed control at 200 ppm [3] | pest or weed control at 12.5 ppm [4] | mortality at 200 ppm [5] | mortality at 200 ppm [6] | pest or weed control at 200 ppm [7]

CCc1cc(C(F)(C(F)(F)F)C(F)(F)Cl)cc(Br)c1NC(=O)c1cccc(NC(=O)c2ccncc2)c1OC (centres unmarked) [Compound 20]
≥ 80%: mortality at 200 ppm [1] | pest or weed control at 200 ppm [2] | pest or weed control at 200 ppm [3] | pest or weed control at 12.5 ppm [4] | mortality at 200 ppm [5] | mortality at 200 ppm [6] | pest or weed control at 200 ppm [7]

CCc1cc(C(F)(C(F)(F)F)C(F)(F)Cl)cc(Br)c1NC(=O)c1cccc(NC(=O)c2ccncc2)c1F (centres unmarked) [Compound 17]
≥ 80%: mortality at 200 ppm [1] | pest or weed control at 200 ppm [2] | pest or weed control at 200 ppm [3] | pest or weed control at 12.5 ppm [4] | mortality at 200 ppm [5] | mortality at 200 ppm [6] | pest or weed control at 200 ppm [7]

CCc1cc(C(F)(C(F)(F)F)C(F)(F)Cl)cc(Br)c1NC(=O)c1cccc(N(CC)C(=O)c2cc[n+]([O-])cc2)c1F (centres unmarked) [Compound 45]
≥ 80%: mortality at 200 ppm [1] | pest or weed control at 200 ppm [2] | pest or weed control at 200 ppm [3] | pest or weed control at 12.5 ppm [4] | mortality at 200 ppm [5] | mortality at 200 ppm [6] | pest or weed control at 200 ppm [7]

CCc1cc(C(F)(C(F)(F)F)C(F)(F)Cl)cc(Br)c1NC(=O)c1cccc(NC(=O)c2cccnc2)c1F (centres unmarked) [Compound 18]
≥ 80%: mortality at 200 ppm [1] | pest or weed control at 200 ppm [2] | pest or weed control at 200 ppm [3] | pest or weed control at 12.5 ppm [4] | mortality at 200 ppm [5] | mortality at 200 ppm [6] | pest or weed control at 200 ppm [7]

CCN(C(=O)c1ccncc1)c1cccc(C(=O)Nc2c(Cl)cc(C(F)(C(F)F)C(F)(F)F)cc2Br)c1OC (centres unmarked) [Compound 51, N-[3-[[2-bromo-6-chloro-4-[1-(difluoromethyl)-1,2,2,2-tetrafluoro-ethyl]phenyl]carbamoyl]-2-methoxy-phenyl]-N-ethyl-pyridine-4-carboxamide]
≥ 80%: mortality at 200 ppm [1] | pest or weed control at 200 ppm [2] | pest or weed control at 200 ppm [3] | pest or weed control at 12.5 ppm [4] | mortality at 200 ppm [6] | pest or weed control at 200 ppm [7]

CCc1cc(C(F)(C(F)(F)F)C(F)(F)Cl)cc(Br)c1NC(=O)c1cccc(NC(=O)c2ccc(C#N)cc2)c1F (centres unmarked) [Compound 19]
≥ 80%: mortality at 200 ppm [1] | pest or weed control at 200 ppm [2] | pest or weed control at 200 ppm [3] | pest or weed control at 12.5 ppm [4] | mortality at 200 ppm [5] | mortality at 200 ppm [6] | pest or weed control at 200 ppm [7]

CCc1cc(C(F)(C(F)(F)F)C(F)(F)Cl)cc(Br)c1NC(=O)c1cccc(N(CC)C(=O)c2ccncc2)c1F (centres unmarked) [Compound 37]
≥ 80%: mortality at 200 ppm [1] | pest or weed control at 200 ppm [2] | pest or weed control at 200 ppm [3] | pest or weed control at 12.5 ppm [4] | mortality at 200 ppm [5] | mortality at 200 ppm [6] | pest or weed control at 200 ppm [7]

CCc1cc(C(F)(C(F)(F)F)C(F)(F)Cl)cc(Br)c1NC(=O)c1cccc(N(CC)C(=O)c2ccc[n+]([O-])c2)c1F (centres unmarked) [Compound 49]
≥ 80%: mortality at 200 ppm [1] | pest or weed control at 200 ppm [2] | pest or weed control at 200 ppm [3] | pest or weed control at 12.5 ppm [4] | mortality at 200 ppm [5] | mortality at 200 ppm [6] | pest or weed control at 200 ppm [7]
